Measurements from patent US20250186652A1, “ARTICLES AND METHODS FOR IMPROVED TISSUE HEALING” (UNIVERSITY OF MISSISSIPPI MEDICAL CENTER, priority 2022, published 2025).

Assays:
[1] = test system: Hif-1 alpha; test: Inhibition of Hif-1 alpha leading to CTGF in vitro
Source text: Fructose-1,6-bisphosphate (FBP) is an intermediate in glycolysis which, if provided to cells could allow them to bypass two ATP-requiring steps for energy production. […] M6P is known to isomerize to fructose-6-phosphate (F6P), an intermediate of glycolysis in the step prior to FBP (FIG. 1). Therefore, one might hypothesize that treatment with M6P may decrease production of CTGF by decreasing the need for substrate-level phosphorylation, which would be vital in hypoxic conditions. In this regard, the present inventors have shown that […] produces the inhibition of Hif-1 alpha leading to CTGF in vitro. Alternatively, latent TGF-β is activated through its binding with the M6P/IGFII receptor (Ghahary, Tredget et al. 1999). Competitive inhibition of the activation of TGF-β through treatment with M6P is considered another method by which M6P may inhibit fibrosis. It is thought that M6P may have more potential for reducing fibrosis than FBP because its mechanism of action is not dependent upon a hypoxic environment.

[2] = test system: CTGF; details: cells under hypoxic conditions; Haung, Adah et al. 2009; cited from earlier work
[3] = test system: MRC-5 fibroblast cells; test: In vitro fibroblast proliferation/viability with M6P and TGF-β1; format: cell-based
Source text: FIGS. 8A-B show images illustrating that M6P competes with TGFβ. (A) Use of MRC-5 fibroblast cells in an in vitro assessment of concentration effects of TGFβ and M6P as well as effectiveness of M6P to block the proliferative effects of TGFβ. (B) Schematic showing potential mechanism of M6P and TGFβ competing for the same M6P receptor that leads to increase gene regulation.

[4] = test system: human dermal fibroblast and keratinocyte; details: Clavel, Barragan-Montero et al. 2005; cited from earlier work
[5] = test system: human tenocytes; details: in vitro; Wong, Tang et al. 2003; cited from earlier work
[6] = test system: digital flexor tendons; details: three weeks after operation; vs operated controls; cited from earlier work

O=C(CO)[C@@H](O)[C@H](O)[C@H](O)COP(=O)(O)O [F6P, fructose 6 phosphate]
inhibition of Hif-1 alpha leading to CTGF [1]: inhibition

O=C(COP(=O)(O)O)[C@@H](O)[C@H](O)[C@H](O)COP(=O)(O)O [FBP, Fructose-1,6-bisphosphate]
production of CTGF [2]: decreases production of CTGF to near control conditions

O=C[C@@H](O)[C@@H](O)[C@H](O)[C@H](O)COP(=O)(O)O [M6P, mannose 6 phosphate]
cell proliferation of fibroblast cells ([3]; 0.05 μM M6P): enhance cell proliferation | toxic effect on fibroblast cells ([3]; 0.05 μM M6P): without evidence of a toxic effect | TGF-β1-induced proliferation ([3]; M6P added along with TGF-β1): increased proliferation was eliminated | inhibition of proliferation [4]: potent inhibitor

C[C@@H]1C[C@H]2[C@@H]3CCC4=CC(=O)C=C[C@]4(C)[C@@]3(F)[C@@H](O)C[C@]2(C)[C@@]1(O)C(=O)CO [dexamethasone]
tenocyte viability, mitotic activity and collagen production [5]: negative effects

TGF-β1: TGF-β1 growth factor added to fibroblast cells [reference compound]
cell proliferation ([3]; TGF-β1 added at 8 pM): enhanced cell proliferation | toxicity to the cells ([3]; TGF-β1 at the higher doses): toxic

B1: PDGF-BB: platelet-derived growth factor-BB, controlled release from fibrin-based delivery system (protein, UniProt P01127 82-190, looked up)
Platelet-derived growth …: SLGSLTIAEPAMIAECKTRTEVFEISRRLIDRTNANFLVWPPCVEVQRCSGCCNNRNVQCRPTQVQLRPVQVRKIEIVRKKPIFKKATVTLEDHLACKCETVAAARPVT
range of motion (ROM) [6]: significantly greater ROM
